Patent US5656600A, “α-ketoamide derivatives as inhibitors of thrombosis” (Corvas International, Inc., priority 1993, dated 1997)
≈ marks a conversion by molar mass, not a printed value. Residues, ends and D or L forms follow the SMILES beside them. *: point of attachment. Pentanoyl(2-Pr) = CCCC(CCC)C(=O)*

Legend:
thrombin = thrombin (Homo sapiens, UniProt P00734); settings: cited from earlier work
arginyl aminopeptidase = settings: Ocain et al.; cited from earlier work
cytosol aminopeptidase = settings: Ocain et al.; cited from earlier work
[1] = target: microsomal aminopeptidase; settings: Ocain et al.; cited from earlier work
α-thrombin = α-thrombin (Homo sapiens, UniProt P00734); assay: Amidolytic thrombin assay (inhibition constant Ki); format: biochemical; settings: chromogenic substrate Pefachrome t-PA, HBSA pH 7.5; slow-binding (kon/koff) or Dixon analysis
Description: The ability of the compounds of the present invention to act as inhibitors of thrombin catalytic activity in comparison to Hirulog-1 (compound 25) was assessed by determining their inhibition constant, Ki.
Enzyme activity was determined using the chromogenic substrate Pefachrome t-PA (CH3 SO2 -D-hexahydrotyrosine-glycyl-L-arginine-p-nitroaniline, obtained from Pentapharm Ltd.). The substrate was reconstituted in deionized water prior to use.
Ki values were determined for test compounds using the following methodologies:
The assay was conducted by combining in appropriate wells of a Corning microtiter plate, 50 μL of HBSA, 50 μL of the test compound at a specified concentration diluted in HBSA (or HBSA alone for Vo(uninhibited velocity) measurement), and 50 μL of the chromogenic substrate diluted in HBSA. At time zero, 50 μL of α-thrombin diluted in HBSA, was added to the wells yielding a final concentration of 0.25 nM in a total volume of 200 μL. Velocities of Pefachrome-tPA substrate hydrolysis which occurred over a 40 minute time period was measured by the change in absorbance at 405 nm using a Thermo Max® Kinetic Microplate Reader. […] The linear relationship between kobs and inhibitor concentration is indicative of a competitive, one step mechanism and was used to calculate kon and koff which yielded a value for Ki after taking into consideration the concentration and Km (38.5 μM) of the substrate in the assay.
The initial velocity of Pefachrome t-PA hydrolysis was measured by the change in absorbance at 405 nm using a Thermo Max® Kinetic Microplate Reader over a 2 minute period in which less than 5% of the added substrate was utilized. The relationship between the ratio of the inhibited steady-state velocity (Vs) and the uninhibited velocity (Vo) to the concentration of inhibitor [It ], was analyzed using Equation 1 developed by Morrison , J. F., Biochim. Biophys. Acta, 185:269 (1969) for inhibitors which deplete a significant amount of the total enzyme (Et) over the course of the assay (designated tight binding inhibitors):
Vs/Vo={([Et ]-[It ]-Ki*)+[([It ]+Ki*-[Et ])^2
Ki* was determined by fitting Vs/Vo verses [I] using Equation 1 by non-linear regression analysis.
The best fit of the data for both compounds was to the equation describing competitive inhibition.

In the case of “N-acetyl--D--Phe--Pro Arg--[.psi.C(=O)--CH2 ]--CH2 --CH2 --CH2 -(C=O)--Gln--Ser--His--Asn--Asp--Gly--Asp--Phe--Glu--Glu--Ile--Pro--Glu--Glu--Tyr--Leu--Gln”, the Ki (thrombin; literature values, read-out: Ki (thrombin), reported) is listed as 0.14 nM.

In the case of `NC(=O)C(=O)C(N)Cc1ccccc1` (stereo not drawn) [3-Amino-2-oxo-4-phenylbutanoic acid amide], the Ki (arginyl aminopeptidase) is given as 1500 nM, the Ki (cytosol aminopeptidase) is given as 1000 nM and the Ki [1] is given as 2500 nM.

For `CCCC(CCC)C(=O)N[C@@H](CC(=O)O)C(=O)N1CCC[C@H]1C(=O)N[C@@H](CCCNC(=N)N)C(=O)C(=O)NCC(=O)NCC(=O)NCC(=O)NCC(=O)NCC(=O)N[C@@H](CC(N)=O)C(=O)NCC(=O)N[C@@H](CC(=O)O)C(=O)N[C@@H](Cc1ccccc1)C(=O)N[C@@H](CCC(=O)O)C(=O)N[C@@H](CCC(=O)O)C(=O)N[C@H](C(=O)N1CCC[C@H]1C(=O)N[C@@H](CCC(=O)O)C(=O)N[C@@H](CCC(=O)O)C(=O)N[C@@H](Cc1ccc(O)cc1)C(=O)N[C@@H](CC(C)C)C(=O)O)[C@@H](C)CC` [Compound 10], the Ki (α-thrombin) was 0.04 nM.

`CCCC(CCC)C(=O)N[C@@H](CC(=O)O)C(=O)N1CCC[C@H]1C(=O)N[C@@H](CCCNC(=N)N)C(=O)N1CCC[C@H]1C(=O)NCC(=O)NCC(=O)NCC(=O)NCC(=O)N[C@@H](CC(N)=O)C(=O)NCC(=O)N[C@@H](CC(=O)O)C(=O)N[C@@H](Cc1ccccc1)C(=O)N[C@@H](CCC(=O)O)C(=O)N[C@@H](CCC(=O)O)C(=O)N[C@H](C(=O)N1CCC[C@H]1C(=O)N[C@@H](CCC(=O)O)C(=O)N[C@@H](Cc1ccc(O)cc1)C(=O)N[C@@H](CC(C)C)C(=O)O)[C@@H](C)CC` [Compound 9] ({Pentanoyl(2-Pr)}-DPRPGGGGNGDFEEIPEYL-OH) gave a Ki (α-thrombin) of 46.1 nM.

For `N=C(N)NCCC[C@@H]1NC(=O)[C@@H]2CCCN2C(=O)[C@@H](NC=O)CNC(=O)/C=C/[C@H](Cc2ccc(O)cc2)NC(=O)[C@@H](Cc2ccccc2)NC(=O)C1=O` [Cyclotheonamide A], the “IC50 (thrombin), reported” value (thrombin; Fusetani et al., Hagihara et al.) is listed as 0.076 µg/mL (≈ 0.104 µM) and the IC50 (thrombin; Fusetani et al., Hagihara et al., read-out: IC50 (thrombin), reported) is listed as 99 nM.

Compound `CCCC(CCC)C(=O)N[C@@H](CC(=O)O)C(=O)N1CCC[C@H]1C(=O)N[C@@H](CCCNC(=N)N)C(=O)C(=O)NCC(=O)NCC(=O)NCC(=O)NCC(=O)NCC(=O)N[C@@H](CCCNC(=N)N)C(=O)NCC(=O)N[C@@H](CC(=O)O)C(=O)N[C@@H](Cc1ccccc1)C(=O)N[C@@H](CCC(=O)O)C(=O)N[C@@H](CCC(=O)O)C(=O)N[C@H](C(=O)N1CCC[C@H]1C(=O)N[C@@H](CCC(=O)O)C(=O)N[C@@H](CCC(=O)O)C(=O)N[C@@H](Cc1ccc(O)cc1)C(=O)N[C@@H](CC(C)C)C(=O)O)[C@@H](C)CC` [Compound 11] has a Ki (α-thrombin) of 0.0078 nM.
